This note sets out measurements from patent US11623919B2, “Heterocyclic P2X7 antagonists” (AXXAM S.P.A., priority 2017, dated 2023).

SMILES strings stand for the structures.

Type in all cases: cell-based
Test [1] addresses T1, P2X7 receptor (Homo sapiens, UniProt Q99572).
T1 sequence (Q99572 1-595): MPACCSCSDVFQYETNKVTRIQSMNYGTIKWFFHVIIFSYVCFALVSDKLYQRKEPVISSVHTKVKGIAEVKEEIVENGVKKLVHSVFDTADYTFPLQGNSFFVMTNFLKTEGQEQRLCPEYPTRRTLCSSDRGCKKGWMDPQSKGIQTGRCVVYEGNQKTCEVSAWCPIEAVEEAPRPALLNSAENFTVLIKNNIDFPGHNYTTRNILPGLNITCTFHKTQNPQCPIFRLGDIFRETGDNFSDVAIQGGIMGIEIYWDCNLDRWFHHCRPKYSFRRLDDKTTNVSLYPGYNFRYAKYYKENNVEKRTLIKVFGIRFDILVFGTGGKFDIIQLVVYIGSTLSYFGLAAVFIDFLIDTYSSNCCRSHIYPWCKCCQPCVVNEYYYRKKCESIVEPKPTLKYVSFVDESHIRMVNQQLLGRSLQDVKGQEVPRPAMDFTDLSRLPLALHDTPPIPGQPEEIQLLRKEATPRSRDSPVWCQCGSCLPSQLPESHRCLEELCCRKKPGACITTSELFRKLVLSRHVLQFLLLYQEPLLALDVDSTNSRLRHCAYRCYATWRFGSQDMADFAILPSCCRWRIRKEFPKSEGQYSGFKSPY
The test is described as follows: YO-PRO-1 uptake assay. Set-up: expressed in transfected cells. To be noted: HEK-293 cells stably transfected with P2X7 receptor; Bz-ATP EC80 (30 μM); Low Divalent Cation Assay Buffer. From the text:
YO-PRO®-1 is a fluorescent DNA-binding dye with a MW of 374 Da (Molecular Probes®, cat. Y3603). This method is based upon the presumed ability of YO-PRO®-1 to enter through the dilated or “large pore form” of P2X7 receptor and to bind to intracellular DNA whereupon it increases many fold its fluorescence intensity. The dye ha an absorption spectrum compatible with excitation at 488 nm by argon laser sources and its emission wavelength is in the range of 515-575 nm. The aim of this assay was to validate the interaction of antagonists with P2X7 receptor using an alternative readout to Ca2+-sensitive fluorescent dyes.
HEK-293 cells stably transfected with P2X7 receptor were seeded overnight un growth medium at 20,000 cell/well in 384-well plate. 24 hours later, the medium was removed, the cells were washed with Low Divalent Cation Assay Buffer (0.3 mM Ca^2+ and 0 mM Mg^2+) and then pre-loaded with 20 μL/w of 5 μM YO-PRO®-1 dye.
FLIPRTETRA fluorescence measurement immediately started. Then 10 μL/w of test compounds and reference antagonist A438079 at 3×-concentration were injected with the FLIPRTETRA and the kinetic response over a period of five minutes was monitored. A second injection of 10 μL/w of 3× Bz-ATP EC80 (30 μM) was performed with the FLIPRTETRA and the signal of the emitted fluorescence was recorded for additional 60 minutes. All the experiment was carried out with a Low Divalent Cation Assay Buffer (0.3 mM Ca^2+ and 0 mM Mg^2+).
The effect of the test compounds was measured as percent inhibition vs the reference antagonist and IC50 values were calculated accordingly.

Test [2] concerns the target T1, P2X7 receptor. Nature of the test: Screen Quest Fluo-8 No Wash Calcium Assay (Bz-ATP evoked Ca2+ influx, FLIPR). Set-up: hP2X7 (IC50; nM); other: hP2X7; HEK-293 cells stably transfected with P2X7 receptor, Bz-ATP at EC80, Fluo-8 NW; potency. As to conditions: hP2X7; HEK-293 cells stably transfected with P2X7 receptor, Bz-ATP at EC80, Fluo-8 NW; potency ranges A-D. In outline: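 HEK-293 cells stably expressing P2X7 were loaded with Fluo-8 NW for 1 h at RT, then given compound, and 5 min later Bz-ATP at EC80. Fluorescence was read by FLIPR in low divalent cation buffer (0.3 mM Ca2+, 0 mM Mg2+). IC50 came from percent inhibition relative to reference antagonist A438079.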

For test [3], the target named is T1, P2X7 receptor. Nature of the test: Automated patch-clamp (QPatch16X) P2X7 channel assay. Set-up: expressed in transfected cells; host or cells: HEK-293. To be noted: HEK-293 cells expressing P2X7 channels; whole-cell, held at -80 mV; 100 microM BzATP; compound 1, 10, 100 and 1000 nM; read-out: Q-Patch (IC50). In outline:
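Whole-cell patch clamp was run at room temperature on HEK-293 cells expressing P2X7, held at −80 mV with CsF internal and pH 7.4 NaCl external solutions. Currents were evoked by 100 µM BzATP alone and then with compound at 1, 10, 100 and 1000 nM. Peak inward currents were normalized and fitted to a Hill equation to give IC50.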
A general note: Patch clamp records ionic current or voltage across a cell membrane.

Take `O=c1onc(Cc2ccc(F)cc2F)n1CC1CCCCC1` [Example 119, 4-(cyclohexylmethyl)-3-[(2,4-difluorophenyl)methyl]-4,5-dihydro-1,2,4-oxadiazol-5-one]: the IC50 (usually the concentration that gives 50% inhibition) was 547 nM in test [1], 200 to 1000 nM in test [2] and 268 nM in test [3].

`O=c1onc(Cc2c(F)cccc2Cl)n1CC12CCC(CC1)C2` [Example 91, 4-{bicyclo [2.2.1]heptan-1-ylmethyl}-3-[(2-chloro-6-fluorophenyl)methyl]-4,5-dihydro-1,2,4-oxadiazol-5-one]: the IC50 in test [1] is 45 nM; in test [2], < 200 nM; in test [3] it was 22 nM.

Consider `O=c1onc(Cc2ccc(F)cc2Cl)n1CC1CCCCC1` [Example 114, 3-[(2-chloro-4-fluorophenyl)methyl]-4-(cyclohexylmethyl)-4,5-dihydro-1,2,4-oxadiazol-5-one], for which the IC50 in test [1] is 129 nM; in test [2], 200 to 1000 nM; in test [3], 165 nM.

For the compound `O=c1onc(Cc2ccccc2F)n1CC1CCCCC1` [Example 120, 4-(cyclohexylmethyl)-3-[(2-fluorophenyl)methyl]-4,5-dihydro-1,2,4-oxadiazol-5-one], the IC50 in test [1] is 590 nM; in test [2], 200 to 1000 nM; in test [3] it was 162 nM.

As to `O=c1onc(Cc2ccc(F)cc2Cl)n1Cc1ccc(F)cc1` [Example 73, 3-[(2-chloro-4-fluorophenyl)methyl]-4-[(4-fluorophenyl)methyl]-4,5-dihydro-1,2,4-oxadiazol-5-one], the IC50 is 670 nM in test [1], 200 to 1000 nM in test [2] and 423 nM in test [3].

Take `O=c1onc(Cc2c(F)cccc2Cl)n1CC1CCCC1` [Example 85, 3-[(2-chloro-6-fluorophenyl)methyl]-4-(cyclopentylmethyl)-4,5-dihydro-1,2,4-oxadiazol-5-one]: the IC50 in test [1] is 131 nM; in test [2] it was < 200 nM; in test [3] it was 167 nM.

`Cc1noc(C)c1Cc1noc(=O)n1CC1CCC(F)(F)CC1` [Example 211, 4-[(4,4-difluorocyclohexyl)methyl]-3-[(dimethyl-1,2-oxazol-4-yl)methyl]-4,5-dihydro-1,2,4-oxadiazol-5-one]: the IC50 is 171 nM in test [1], < 200 nM in test [2] and 119 nM in test [3].

For `O=c1onc(Cc2c(F)cccc2Cl)n1Cc1ccc(F)cc1Cl` [Example 60, 4-[(2-chloro-4-fluorophenyl)methyl]-3-[(2-chloro-6-fluorophenyl)methyl]-4,5-dihydro-1,2,4-oxadiazol-5-one], the IC50 in test [1] is 366 nM; in test [2], 200 to 1000 nM; in test [3] it was 623 nM.

On to `O=c1onc(Cc2ccc(Cl)cc2Cl)n1CC1CCCCC1` [Example 118, 4-(cyclohexylmethyl)-3-[(2,4-dichlorophenyl)methyl]-4,5-dihydro-1,2,4-oxadiazol-5-one], for which the IC50 is 618 nM in test [1], 200 to 1000 nM in test [2] and 1090 nM in test [3].
